The structures appear in SMILES notation.

The test system of assay [1] is human fibroblasts. In words: Early protein phosphorylation changes in 32P-labeled cells, two-dimensional gel electrophoresis with computerized densitometry. It is filed as cell-based.
Description: The cells were then subjected to analysis by high resolution two-dimensional gel electrophoresis combined with computerized imaging as previously described (Guy et al, J. Biol. Chem. 266, 14343-14352, 1991).
Radiolabeling of Cells and Cell Lysis - For labeling with [³²P]orthophosphate cells were plated onto 90 mm plastic tissue culture dishes and incubated for 3 days for the cells to become confluent. Immediately before labeling, the media was removed and the cells were washed twice with 5 ml of phosphate- and serum-free media (150 mM NaCl, 5 mM MgCl₂, 5 mM KCl, 1.6 mM CaCl₂, 0.5% glucose, 10 mM Tris, 0.1% bovine serum albumin, pH 7.4) before the addition of 1 mCi/ml of [³²P]orthophosphate in 3 ml of the same media to each plate. The plates were incubated at 37°C in a humidified CO₂ incubator for 2 h before the addition of the okadaic acid or other agonists at the concentrations and for the times indicated in the figures and table. The agonists were reconstituted in aqueous buffered solution or in dimethyl sulfoxide. […] At the completion of labeling the media was removed, and the cells were rapidly washed twice with 5 ml of ice-cold phosphate-buffered saline before being solubilised in 200 µl of cytosol extraction buffer (10mM Tris-HCl, 50 mM EDTA, 50 mM NaCl, 30 mM sodium pyrophosphate, 50 mM NaF, 100µM Na₃VO₄, 0.65% Nonidet P-40, 2 mM leupeptin, 2mM phenylmethylsulfonyl fluoride, pH 7.4). The lysate was collected and centrifuged for 5 min at 14,000 rpm. The pellet containing the nuclear fraction (including the cytoskeletal-membrane fractions) was separated from the cytosolic fraction. Both fractions were lyophilized.
Two-dimensional Gel Electrophoresis - The lyophilized fractions (each of approximately 12 µg) were subjected to isoelectric focusing for 18,000 V/h with pH 3-10 ampholytes using the Millipore Investigator two-dimensional electrophoresis system (Millipore). Following this, the first-dimension gel was extruded and equilibrated in SDS buffer for 2 min before being loaded onto the second dimension 12.5% SDS-polyacrylamide gel. The gel was fixed, dried and ³²P-labeled polypeptides were located by autoradiography by using intensifying screens at -80°C. For measurement of the pH profile, carbamylated protein standards (Pharmacia LKB Biotechnology Inc.) were co-run on duplicate gels and related to proteins of known pI on previously calibrated samples. Molecular weight marker proteins from Sigma were detected by Coomassie Blue staining and marked on the autoradiogram. ³²P-Labeled 27 hsp complex prepared from human fibroblasts heat shocked at 43°C for 30 min was also used as a marker.
Quantitative Determination of Protein Phosphorylation - The amount of protein phosphorylation on autoradiographs derived from cytosolic membrane or antibody-precipitated preparations containing equal amounts of protein were analyzed by computerized densitometry using a Visage 2000 Image analysis system (BioImage Products, Ann Arbor, MI, US).
The ³²P-labeled protein spots are resolved and detected by autoradiography of the high definition two-dimensional gel electrophoresis of cytosolic extracts prepared from ³²P-labeled human fibroblasts. The radioactive spots (each representing one or more phosphoproteins) are analyzed by computerized densitometry. Each spot is arbitrarily assigned a number. […]
In assay [2] the test system is IL-6. In words: Northern blot analysis of IL-6 gene expression in human fibroblasts. In kind it is cell-based. The conditions noted are these: regularly maintained cells. How it is done:
Quiescent human fibroblasts were incubated with TNF (500 units/ml) (a) or OA (500 nM) (b) for 0, 30, 60 min after which total cellular RNA was extracted. Blots of RNA from these cells were hybridized to radiolabeled (10⁶ cpm/ml) Egr-1 cDNA probe. c, the blot in b was stripped and reprobed with c-jun cDNA. Note: Egr-1 mRNA probe was not completely stripped from the blot. The autoradiograph of the blot is presented. d, regularly maintained cells were incubated wither with no additions (control, 0 time) or with OA for 1, 3, 5, 7 h and Northern analysis was carried out with an IL-6 cDNA probe (ATCC, Rockville, MD, US).
Preparation of RNA and Northern Analysis - Human fibroblasts (4 x 10⁶) were seeded in 175cm² tissue culture flasks and incubated at 37°C for 6 days in regular medium. The cells were fed with regular medium on day 3. On day 6 the medium was replaced by minimal essential medium containing 0.25% fetal calf serum and incubated for another 48 h to maintain the cells in a quiescent state. Quiescent or regularly maintained cells were treated with a specific agonist for the times indicated (see Fig. 7). The cells were harvested and total cytoplasmic RNA isolated by a one-step guanidinium thiocyanate/phenol/chloroform method. […] The blots were autoradiographed and quantitated by the Visage 2000 Image system (BioImage Products, Ann Arbor, MI, US).

In assay [3] the test system is WISH cells. In words: Early protein phosphorylation changes in WISH cells. It is filed as cell-based, human. The following applies: data not shown. How it is done: Cell Cultures and Reagents - Human diploid fibroblasts, FS-4, 2343 gifts from Dr. J. Vilcek (New York University). They were grown in tissue culture flasks and maintained with minimal essential medium (MEM) supplemented with 10% fetal bovine serum (Hyclone, Logan, UT, US) herein referred to as regular medium. Human WISH cells were purchased from the American Type Culture Collection. Recombinant human TNF and IL-1 with specific activities of 2 x 10⁷ units and 1 x 10⁸ units/mg protein, respectively, and of purities of ≧99% were purchased from Genzyme Corp. (Cambridge, MA, US). Phorbol 12-myristate 13-acetate, bradykinin, forskolin, dibutyryl-cyclic AMP (dBt-cAMP) and FGF were from Sigma, Okadaic acid was purchased from Biomol (Plymouth Meeting, PA, US). Radioactive [³²P]P was from Du Pont-New England Nuclear. […]
Two-dimensional Gel Electrophoresis - The lyophilized fractions (each of approximately 12 µg) were subjected to isoelectric focusing for 18,000 V/h with pH 3-10 ampholytes using the Millipore Investigator two-dimensional electrophoresis system (Millipore). […] Molecular weight marker proteins from Sigma were detected by Coomassie Blue staining and marked on the autoradiogram. ³²P-Labeled 27 hsp complex prepared from human fibroblasts heat shocked at 43°C for 30 min was also used as a marker.

[4] abbreviates: cytosolic fraction, first 15 min of ligand treatment.

Regarding `C=C1[C@@H](O)[C@@H]2O[C@]3(CC[C@H](/C=C/[C@@H](C)[C@@H]4CC(C)=C[C@@]5(O[C@H](C[C@@](C)(O)C(=O)O)CC[C@H]5O)O4)O3)CC[C@H]2O[C@@H]1[C@@H](O)C[C@H](C)[C@H]1O[C@@]2(CCCCO2)CC[C@H]1C` [okadaic acid], in assay [1] (setting [4]), the “number of proteins dephosphorylated” value is “six” and the “number of proteins with early phosphorylation changes” value is “about 60 proteins”. The “identity of changes in early protein phosphorylation with those induced by TNF” value in assay [1] (cytosolic fraction, okadaic acid, 15 min, TNF 50 units/ml) was “about 95%”. Besides, the “changes in protein phosphorylation compared with TNF treatment (in words)” value in assay [1] (nuclear/cytoskeletal membrane fraction, 46-50 proteins, 15 min) is given as “almost identical changes”. Also, the “time of induction of IL-6” value in assay [2] was 7 h. In addition, the “changes in early protein phosphorylation compared with TNF (in words)” value in assay [3] is “almost identical changes”.
